*1 amine or outer side, *2 acyl side, *3 side chain or, on linkers, in order; H or OH if unused. Where a SMILES comes first, the peptide text is derived from it. Bridges are numbered along the chain shown (N, C = ends). [ ]: non-standard residue; d: D form. The star is where a group is joined. Ethylenediamine = C(CN[*:2])N[*:1]; X1 = O=C(CC1(S[*:2])CCCCC1)[*:1]; NH(CH2)4NH2 = NCCCCN*; NHCH2CH2OH = OCCN*; NHBu = CCCCN*
Tests used:
[1] = tested on: antidiuretic response to arginine vasopressin; test: Antagonism of the antidiuretic response to arginine vasopressin (Anti-ADH); assay type: in vivo, rats; conditions: for Anti-ADH Potency pA2: Table 4, estimated in vivo pA2; for Anti-ADH pA2: Table 1, estimated in vivo pA2 = negative log of effective dose divided by volume of distribution (67 ml/kg)
Description: Activity as antidiuretic agonists was determined by intravenous injection of the compounds being evaluated in ethanol-anesthesized water-loaded rats in accordance with Sawyer, Endocrinology, vol. 63 (1958) at 694. Antagonism of the antidiuretic response to subsequent injections of arginine vasopressin was tested by the method of Sawyer et al., Science, vol. 212 (1981) at 49.
(§1) Antagonistic potencies were determined and expressed as "effective doses" and pA2 values. The "effective dose" is defined as the dose (in nanomoles per kilogram) that reduces the response seen from 2x units of agonist injected 20 min after the dose of antagonist to the response with 1x units of agonist. Estimated in vivo "pA2 " values represent the negative logarithms of the effective doses, divided by the estimated volume of distribution (67 ml/kg).

[2] = tested on: vasopressor response to arginine vasopressin; test: Antagonism to the vasopressor response (Anti-VP); assay type: in vivo; conditions: estimated in vivo pA2; for Anti-VP Potency pA2: Table 4, ^+ = mixed; for Anti-VP pA2: Table 1
Description: Antagonism to the vasopressor response was estimated in accordance with Dyckes et al., J. Med. Chem., vol. 17 (1974) at 969. The values are expressed as pA2 values, defined as in Schild et al., Br. J. Pharmacol., vol. 2 (1947) at 189.
as §1

| SMILES | Anti-ADH Potency pA2 [1] | Anti-VP Potency pA2 [2] | Anti-ADH pA2 [1] | Anti-VP pA2 [2] |
| --- | --- | --- | --- | --- |
| CC[C@H](C)[C@@H]1NC(=O)[C@H](Cc2ccccc2)NC(=O)[C@@H](Cc2ccccc2)NC(=O)CC2(CCCCC2)SSC[C@@H](C(=O)N2CCC[C@H]2C(=O)N[C@@H](CCCNC(=N)N)C(=O)NCCO)NC(=O)[C@H](CC(N)=O)NC1=O [[1-(beta-mercapto-beta,beta-cyclopentamethylenepropionic acid), 2-D-phenylalanine, 4-isoleucine, 8-arginine-N-(beta-hydroxy)ethylamide, 9-desglycinamide] vasopressin] ([dF]FINCPR-NHCH2CH2OH; linker N-5 via X1) | 8.17 ± 0.10 | 7.45 ± 0.12 | – | – |
| CC[C@H](C)[C@@H]1NC(=O)[C@H](Cc2ccccc2)NC(=O)[C@@H](Cc2ccccc2)NC(=O)CC2(CCCCC2)SSC[C@@H](C(=O)N2CCC[C@H]2C(=O)N[C@@H](CCCNC(=N)N)C(=O)NCCCCN)NC(=O)[C@H](CC(N)=O)NC1=O [[1-(beta-mercapto-beta,beta-cyclopentamethylenepropionic acid), 2-D-phenylalanine, 4-isoleucine, 8-arginine-N-(delta-amino)butylamide, 9-desglycinamide] vasopressin] ([dF]FINCPR-{NH(CH2)4NH2}; linker N-5 via X1) | 8.11 ± 0.03 | 7.61 ± 0.08 | – | – |
| CC[C@H](C)[C@@H]1NC(=O)[C@H](Cc2ccccc2)NC(=O)[C@@H](Cc2ccccc2)NC(=O)CC2(CCCCC2)SSC[C@@H](C(=O)N2CCC[C@H]2C(=O)N[C@@H](CCCNC(=N)N)C(=O)O)NC(=O)[C@H](CC(N)=O)NC1=O [[1-(beta-mercapto-beta,beta-cyclopentamethylenepropionic acid), 2-D-phenylalanine, 4-isoleucine, 9-desglycinamide]-arginine vasopressin] ([dF]FINCPR-OH; linker N-5 via X1) | 8.05 ± 0.09 | 7.84 ± 0.03 | 7.20 ± 0.10 | 6.74 ± 0.08 |
| CC[C@H](C)[C@@H]1NC(=O)[C@H](Cc2ccccc2)NC(=O)[C@@H](Cc2ccccc2)NC(=O)CC2(CCCCC2)SSC[C@@H](C(=O)N2CCC[C@H]2C(=O)N[C@@H](CCCNC(=N)N)C(=O)NCC(=O)NCCN)NC(=O)[C@H](CC(N)=O)NC1=O [[1-(beta-mercapto-beta,beta-cyclopentamethylenepropionic acid), 2-D-phenylalanine, 4-isoleucine, 9-glycine-N-(beta-amino)ethylamide]-arginine vasopressin] ([dF]FINCPRG-Ethylenediamine; linker N-5 via X1) | 8.10 ± 0.10 | 7.58 ± 0.07 | – | – |
| CC[C@H](C)[C@@H]1NC(=O)[C@H](Cc2ccccc2)NC(=O)[C@@H](Cc2ccccc2)NC(=O)CC2(CCCCC2)SSC[C@@H](C(=O)N2CCC[C@H]2C(=O)N[C@@H](CCCNC(=N)N)C(=O)NCC(=O)NCCO)NC(=O)[C@H](CC(N)=O)NC1=O [[1-(beta-mercapto-beta,beta-cyclopentamethylenepropionic acid), 2-D-phenylalanine, 4-isoleucine, 9-glycine-N-(beta-hydroxy)ethylamide]-arginine vasopressin] ([dF]FINCPRG-NHCH2CH2OH; linker N-5 via X1) | 8.20 ± 0.12 | 6.92 ± 0.07 | – | – |
| CCCCNC(=O)CNC(=O)[C@H](CCCNC(=N)N)NC(=O)[C@@H]1CCCN1C(=O)[C@@H]1CSSC2(CCCCC2)CC(=O)N[C@H](Cc2ccccc2)C(=O)N[C@@H](Cc2ccccc2)C(=O)N[C@@H]([C@@H](C)CC)C(=O)N[C@@H](CC(N)=O)C(=O)N1 [[1-(beta-mercapto-beta,beta-cyclopentamethylenepropionic acid), 2-D-phenylalanine, 4-isoleucine, 9-glycine-N-(n-butyl)amide]-arginine vasopressin] ([dF]FINCPRG-NHBu; linker N-5 via X1) | 7.66 ± 0.05 | 6.80 ± 0.08 | – | – |
| CC[C@H](C)[C@@H]1NC(=O)[C@H](Cc2ccccc2)NC(=O)[C@@H](Cc2ccccc2)NC(=O)CC2(CCCCC2)SSC[C@@H](C(=O)N2CCC[C@H]2C(=O)N[C@@H](CCCNC(=N)N)C(=O)NCC(=O)NC)NC(=O)[C@H](CC(N)=O)NC1=O [[1-(beta-mercapto-beta,beta-cyclopentamethylenepropionic acid), 2-D-phenylalanine, 4-isoleucine, 9-glycine-N-methylamide]-arginine vasopressin] ([dF]FINCPRG-NHMe; linker N-5 via X1) | 8.07 ± 0.07 | 6.22 | – | – |
| CC[C@H](C)[C@@H]1NC(=O)[C@H](Cc2ccccc2)NC(=O)[C@@H](Cc2ccccc2)NC(=O)CC2(CCCCC2)SSC[C@@H](C(=O)N2CCC[C@H]2C(=O)N[C@@H](CCCNC(=N)N)C(=O)NCC(=O)NCC(N)=O)NC(=O)[C@H](CC(N)=O)NC1=O [[1-(beta-mercapto-beta,beta-cyclopentamethylenepropionic acid), 2-D-phenylalanine, 4-isoleucine, 9-glycine]-arginine vasopressinyl glycinamide] ([dF]FINCPRGG-NH2; linker N-5 via X1) | 7.83 ± 0.04 | 7.72 | – | – |
| CCCCNC(=O)[C@H](CCCNC(=N)N)NC(=O)[C@@H]1CCCN1C(=O)[C@@H]1CSSC2(CCCCC2)CC(=O)N[C@H](Cc2ccc(OCC)cc2)C(=O)N[C@@H](Cc2ccccc2)C(=O)N[C@@H]([C@@H](C)CC)C(=O)N[C@@H](CC(N)=O)C(=O)N1 [[1-beta-mercapto-beta,beta-cyclopentamethylenepropionic acid), 2-(D-O-ethyl)tyrosine, 4-isoleucine, 8-arginine-N-(n-butyl)amide, 9-desglycinamide] vasopressin] ([dY](Et)FINCPR-NHBu; linker N-5 via X1) | 7.62 ± 0.09 | 7.51 ± 0.08 | – | – |
| CC[C@H](C)[C@@H]1NC(=O)[C@H](Cc2ccccc2)NC(=O)[C@@H](Cc2ccc(O)cc2)NC(=O)CC2(CCCCC2)SSC[C@@H](C(=O)N2CCC[C@H]2C(=O)N[C@@H](CCCNC(=N)N)C(=O)NCCN)NC(=O)[C@H](CC(N)=O)NC1=O [[1-beta-mercapto-beta,beta-cyclopentamethylenepropionic acid, 2-D-tyrosine, 4-isoleucine, 8-arginine-N-(beta-amino)ethylamide, 9-desglycinamide] vasopressin] ([dY]FINCPR-Ethylenediamine; linker N-5 via X1) | 7.81 ± 0.06 | 7.93 ± 0.08 | – | – |
| CC[C@H](C)[C@@H]1NC(=O)[C@H](Cc2ccccc2)NC(=O)[C@@H](Cc2ccccc2)NC(=O)CC2(CCCCC2)SSC[C@@H](C(=O)N2CCC[C@H]2C(=O)N[C@@H](CCCNC(=N)N)C(=O)NCC(=O)O)NC(=O)[C@H](CC(N)=O)NC1=O [d(CH2)5 [D-Phe^2,Ile^ 4]AVP acid, [1-(beta-mercapto-beta,beta-cyclopentamethylenepropionic acid), 2-D-phenylalanine, 4-isoleucine, 9-glycine]-arginine vasopressin] ([dF]FINCPRG-OH; linker N-5 via X1) | – | – | 7.11 ± 0.11 | 6.94 ± 0.08 |

Source: patent US4772586A, “Novel derivatives of arginine vasopressin antagonists” (Medical College of Ohio, priority 1986, dated 1988)
